Laboratory results: ChEMBL document CHEMBL3045195, “Comparison of the activity of non-steroidal ecdysone agonists between dipteran and lepidopteran insects, using cell-based EcR reporter assays” (Pest Manag Sci, 2010)
Calls of active or inactive are those of the source. No cut-off for these calls is given here.

Assays:
Ecdysone receptor [1] = target: T1, Ecdysone receptor (Drosophila melanogaster, UniProt P20153+P34021); test: Agonist activity at ecdysone receptor in Drosophila melanogaster B2 cells assessed as reduction in cell density
T1 sequence (P34021 whole entry): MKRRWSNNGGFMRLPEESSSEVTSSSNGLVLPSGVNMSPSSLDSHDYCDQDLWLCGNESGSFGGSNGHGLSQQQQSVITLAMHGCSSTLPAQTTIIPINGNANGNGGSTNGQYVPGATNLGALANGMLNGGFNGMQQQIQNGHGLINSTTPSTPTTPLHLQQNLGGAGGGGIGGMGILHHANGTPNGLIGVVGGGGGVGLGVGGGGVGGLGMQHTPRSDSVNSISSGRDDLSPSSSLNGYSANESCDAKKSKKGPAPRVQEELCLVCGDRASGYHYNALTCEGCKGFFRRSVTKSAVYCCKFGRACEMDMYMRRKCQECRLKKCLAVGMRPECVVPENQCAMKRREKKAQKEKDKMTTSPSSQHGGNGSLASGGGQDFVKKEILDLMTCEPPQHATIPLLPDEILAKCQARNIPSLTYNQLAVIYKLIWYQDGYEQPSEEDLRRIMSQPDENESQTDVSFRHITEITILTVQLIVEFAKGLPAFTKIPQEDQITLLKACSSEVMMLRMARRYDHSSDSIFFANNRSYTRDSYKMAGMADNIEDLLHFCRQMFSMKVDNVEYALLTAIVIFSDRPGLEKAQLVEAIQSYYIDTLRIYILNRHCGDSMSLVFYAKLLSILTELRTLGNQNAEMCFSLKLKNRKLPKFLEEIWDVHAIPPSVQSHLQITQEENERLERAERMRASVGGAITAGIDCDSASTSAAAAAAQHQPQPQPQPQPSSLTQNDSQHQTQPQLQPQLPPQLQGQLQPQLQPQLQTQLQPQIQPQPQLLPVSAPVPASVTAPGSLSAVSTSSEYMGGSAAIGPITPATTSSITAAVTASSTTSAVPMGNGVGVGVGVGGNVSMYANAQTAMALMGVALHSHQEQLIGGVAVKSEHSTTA
T1 sequence (P20153 whole entry): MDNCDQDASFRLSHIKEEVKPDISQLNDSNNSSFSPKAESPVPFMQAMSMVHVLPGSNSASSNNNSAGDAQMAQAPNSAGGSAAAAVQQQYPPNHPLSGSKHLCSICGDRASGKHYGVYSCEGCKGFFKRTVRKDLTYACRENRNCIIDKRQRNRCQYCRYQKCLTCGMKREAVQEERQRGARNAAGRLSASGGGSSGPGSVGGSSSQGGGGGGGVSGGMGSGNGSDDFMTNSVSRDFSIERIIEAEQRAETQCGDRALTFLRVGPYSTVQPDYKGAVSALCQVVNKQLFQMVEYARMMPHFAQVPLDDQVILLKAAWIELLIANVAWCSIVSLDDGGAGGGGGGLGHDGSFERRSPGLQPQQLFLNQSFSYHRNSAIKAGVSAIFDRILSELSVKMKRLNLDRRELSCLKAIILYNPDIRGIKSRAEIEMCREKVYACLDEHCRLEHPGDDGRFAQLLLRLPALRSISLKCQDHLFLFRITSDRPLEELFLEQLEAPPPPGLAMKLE

Ecdysone receptor [2] = target: T2, Ecdysone receptor (Bombyx mori, UniProt P49881); test: (§1) Agonist activity at ecdysone receptor in Bombyx mori Bm5 cells after 24 hr by luciferase reporter gene assay; assay type: cell-based
T2 sequence (P49881 whole entry): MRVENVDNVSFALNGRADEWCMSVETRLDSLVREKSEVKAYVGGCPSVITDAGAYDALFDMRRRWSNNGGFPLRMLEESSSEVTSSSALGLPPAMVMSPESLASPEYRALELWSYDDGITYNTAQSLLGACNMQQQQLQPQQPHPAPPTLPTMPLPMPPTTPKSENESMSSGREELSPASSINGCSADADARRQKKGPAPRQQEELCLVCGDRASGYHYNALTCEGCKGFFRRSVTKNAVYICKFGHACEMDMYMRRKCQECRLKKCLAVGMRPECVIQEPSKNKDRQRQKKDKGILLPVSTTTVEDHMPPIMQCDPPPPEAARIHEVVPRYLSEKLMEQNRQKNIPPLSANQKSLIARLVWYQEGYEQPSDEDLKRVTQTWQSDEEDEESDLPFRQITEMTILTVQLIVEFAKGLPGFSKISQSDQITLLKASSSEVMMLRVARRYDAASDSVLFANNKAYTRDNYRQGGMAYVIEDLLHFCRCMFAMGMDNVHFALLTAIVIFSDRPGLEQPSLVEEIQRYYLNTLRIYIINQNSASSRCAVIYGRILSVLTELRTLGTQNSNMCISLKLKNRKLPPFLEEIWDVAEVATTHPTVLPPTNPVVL

[3] = target: T3, Ecdysone receptor (Drosophila melanogaster) (UniProt P34021+P20153); test: Agonist activity at ecdysone receptor in Drosophila melanogaster S2 cells at 100 uM after 24 hr by luciferase reporter gene assay relative to 20-hydroxyecdysone; assay type: cell-based
Ecdysone receptor [4] = target: T1, Ecdysone receptor; test: (§2) Agonist activity at ecdysone receptor in Drosophila melanogaster S2 cells after 24 hr by luciferase reporter gene assay; assay type: cell-based
[5] = Cytotoxicity against Drosophila melanogaster S2 cells at 10 to 100 uM after 24 hr by CellTiter assay; assay type: cell-based; conditions: s2, 24 h
[6] = target: T3, Ecdysone receptor (Drosophila melanogaster); test: Agonist activity at ecdysone receptor in Drosophila melanogaster S2 cells at 10 uM after 24 hr by luciferase reporter gene assay relative to 20-hydroxyecdysone; assay type: cell-based
[7] = target: T4, Ecdysone receptor (Bombyx mori) (UniProt P49881); test: as §1; assay type: cell-based
T4 sequence (whole entry): T2 sequence (P49881 whole entry)

[8] = target: T3, Ecdysone receptor (Drosophila melanogaster); test: as §2; assay type: cell-based
Ecdysone receptor [9] = target: T1, Ecdysone receptor; test: Agonist activity at ecdysone receptor in Drosophila melanogaster Kc cells after 24 hr by luciferase reporter gene assay

Row | EC50 (Ecdysone receptor [1]) | EC50 (Ecdysone receptor [2]) | Efficacy [3] | EC50 (Ecdysone receptor [4]) | Structure (SMILES) | also measured
1 | 2570 nM | 331 nM | 48% | 105000 nM | CC(C)(C)N(NC(=O)c1ccccc1Cl)C(=O)c1ccccc1Cl | 
2 | 1200 nM | 105 nM | 52% | 91200 nM | CC(C)(C)N(NC(=O)c1ccccc1)C(=O)c1ccccc1I | 
3 | 1100 nM | 224 nM | 86% | 15500 nM | CC(C)(C)N(NC(=O)c1ccccc1)C(=O)c1ccccc1[N+](=O)[O-] | 
4 | 219 nM | 5.75 nM | 71% | 15500 nM | CCc1ccc(C(=O)NN(C(=O)c2ccccc2Cl)C(C)(C)C)cc1 | 
5 |  | > 100000 nM |  |  | CN(NC(=O)c1ccccc1)C(=O)c1ccccc1 | pEC50 [8]: inactive
6 |  | 19.1 nM |  | 16600 nM | Cc1cc(C)cc(C(=O)N(NC(=O)c2ccc(Cl)cc2)C(C)(C)C)c1 | Efficacy [6]: 42%
7 |  | 75.9 nM |  | 8510 nM | CC(C)(C)N(NC(=O)c1ccccc1)C(=O)c1ccccc1Cl | Efficacy [6]: 57%

Further lines, the molecule ahead of its results:

Row | Structure (SMILES) | EC50 (Ecdysone receptor [1]) | EC50 (Ecdysone receptor [2]) | Efficacy [3] | EC50 (Ecdysone receptor [4]) | also measured
8 | CC(C)(C)N(NC(=O)c1cccc(Cl)c1)C(=O)c1ccccc1Cl | 1200 nM | 155 nM | 80% | 16600 nM | 
9 | CC(C)(C)N(NC(=O)c1ccc(Cl)cc1)C(=O)c1ccccc1 [HALOFENOZIDE] |  | 87.1 nM | 57% | 7760 nM | Activity [5]: Non-toxic
10 | CCc1ccc(C(=O)NC2(C(=O)c3cc(C)cc(C)c3)CCCCC2)cc1 |  |  |  | > 10000 nM | Efficacy [6]: 4%
11 | CC(C)(C)N(NC(=O)c1ccccc1)C(=O)c1ccccc1F | 6170 nM | 309 nM | 62% | 72400 nM | 
12 | Cc1ccc(N(C(=O)c2ccc(Cl)cc2)C2CC(C)N(C(=O)c3ccc(Cl)cc3)c3ccc(C)cc32)cc1 (centres undefined) |  |  |  |  | pEC50 [7]: inactive; pEC50 [8]: inactive
13 | CC1CCc2ccccc2N1C(=O)c1ccc(Cl)cc1 (centres undefined) |  |  |  |  | pEC50 [7]: inactive; pEC50 [8]: inactive
14 | Cc1ccc(NC2CCN(C(=O)c3ccc(Cl)cc3)CC2)cc1 |  |  |  |  | pEC50 [7]: inactive; pEC50 [8]: inactive
15 | Cc1ccc(NC2CCN(C(=O)c3ccc(Cl)cc3)c3ccccc32)cc1 (centres undefined) |  |  |  |  | pEC50 [7]: inactive; pEC50 [8]: inactive
16 | Cc1ccccc1C(=O)N(NC(=O)c1ccccc1)C(C)(C)C | 3800 nM | 224 nM | 45% | 120000 nM | 
17 | COc1ccccc1C(=O)N(NC(=O)c1ccccc1)C(C)(C)C | 3800 nM | 525 nM | 44% | 120000 nM | 
18 | CC(C)(C)N(NC(=O)c1ccccc1)C(=O)c1ccccc1Br | 794 nM | 170 nM | 55% | 81300 nM | 
19 | Cc1ccc(C(=O)NN(C(=O)c2ccccc2Cl)C(C)(C)C)cc1 | 219 nM | 18.6 nM | 79% | 3240 nM | 
20 | CC(C)(C)N(NC(=O)c1ccccc1)C(=O)c1ccccc1 [RH-5849] | 1820 nM | 427 nM | 62% | 37200 nM | Activity [5]: Non-toxic
21 | CCCc1ccc(C(=O)NN(C(=O)c2ccccc2Cl)C(C)(C)C)cc1 |  | 9.12 nM |  | 9770 nM | Efficacy [6]: 52%
22 | CC(C)(C)N(NC(=O)c1ccccc1)C(=O)c1ccccc1C(F)(F)F | 3630 nM | 631 nM | 63% | 33900 nM | 
23 | Cc1ccc(C(=O)NN(C(=O)c2cc(C)cc(C)c2)C(C)(C)C)cc1 |  | 12 nM |  | 11200 nM | Efficacy [6]: 46%
24 | CCCCCC(=O)N(NC(=O)c1ccc(CC)cc1)C(C)(C)C |  | 2820 nM |  |  | pEC50 [8]: inactive
25 | CCCCCCC(=O)N(NC(=O)c1ccccc1)C(C)(C)C |  | 7240 nM |  |  | pEC50 [8]: inactive
26 | CC(C)(C)N(NC(=O)c1ccc(-c2ccccc2)cc1)C(=O)c1ccccc1Cl |  |  |  |  | EC50 (Ecdysone receptor [9]): > 100000 nM
27 | Cc1ccc(NC2CC(C)N(C(=O)c3ccc(C(C)(C)C)cc3)c3ccc(C)cc32)cc1 (centres undefined) |  |  |  |  | pEC50 [7]: inactive; pEC50 [8]: inactive
